What was measured:
[1] = test system: patients with Dravet syndrome; assay: Study 1 (ZX008-1501/1502): Phase 3, double-blind, placebo-controlled, liquid fenfluramine formulation added to current antiepileptic drugs; assay type: in vivo, human; conditions: end of the T+M Period
Protocol: The first 119 subjects to be randomized in both identical studies combined were analyzed and reported as Study 1 (FIG. 1), covered by a Statistical Analysis Plan (SAP).
Primary and key secondary endpoints in the Study 1 SAP were pre-determined. All patients were treated twice per day over a period of 14 weeks using an oral syringe to administer the formulation. The treatment period included a two-week titration period and a 12-week maintenance period.
The initial results of Study 1 are outlined below. The randomized, double blind, placebo controlled, Phase 3 study enrolled 119 patients across sites in the United States, Canada, Europe and Australia. The median age of patients was 8 years, the mean age of patients was 9 years (range, 2-18 years) (FIG. 2).
Patients were titrated to their target dose over two weeks, and then remained at that fixed dose for 12 weeks. The mean baseline convulsive seizure frequency across the study groups was approximately 40 seizures per month. 110 (92%) patients completed the study (85% 0.8 mg/kg/day; 100% 0.2 mg/kg/day; 93% placebo). […]
The mean number of convulsive seizure free days, defined as a day for which diary data are available and no convulsive seizures have been reported, was determined for each treatment group during the Baseline and T+M Periods. […]

[2] = test system: patients with Dravet syndrome; conditions: long-term fenfluramine treatment; cited from earlier work

## CCNC(C)Cc1cccc(C(F)(F)F)c1 (racemic) [Fenfluramine, 3-trifluoromethyl-N-ethylamphetamine]
[1]; 0.2 mg/kg/day
  reduction from Baseline in non-convulsive seizures (all types), % [SD]: 9.7% (140.46)
[1]; 0.8 mg/kg/day
  reduction from Baseline in non-convulsive seizures (all types), % [SD]: 59.1% (40.14)
[2]
  heart valve defects monitored by echocardiography: No clinically relevant defects
  incidence of all types of seizures: effectively reduced the incidence of all types of seizures
  seizure-free condition, share of test subjects: 66.6%
